# Where “and” joins values, the source holds several entries; their conditions need not be identical. Equal entries are not always repeated.
# Experiments:
# [1] = system: endotoxin induced lethality; assay: endotoxin induced lethality in mice (septic shock model); format: in vivo, Balb/c mice; conditions: for cumulative percent survival: 72 hours post LPS (LPS-only 7%); for survival (Number Surviving/Total): single experiments
# Method: Animals were treated with 10 μg/gm of LPS (i.v.) Immediately following the LPS (t=0), 2 hrs after the LPS (t=2) or 4 hrs following LPS (t-4) the mice were treated with their first treatment of CT1501R (100 mg/kg, i.p.). The mice were treated with CT1501R three times per day thereafter, and animal survival was monitored.
# This example illustrates the effect of CT1501R on survival in mice given a lethal dose of endotoxin. We determined if CT1501R protects against endotoxin induced lethality in a murine model. Septic shock was modeled by endotoxin injection of 6-8 week old female Balb/c mice similar to previously published reports (Ashkenazi et al. Proc. Natl. Acad. Sci. U.S.A. 88: 10535-10539, 1991) under protocols approved by the Animal Use Committee of the Biomembrane Institute, Seattle, Wash. Animals were injected intravaneously (i.v.) with an approximate LD100 dose (10 μg/g) of Salmonella abortus equi-derived endotoxin (Sigma Chemical Co., L-1887) in phosphate buffered saline (PBS). CT1501R at a dose of 100 μg/kg was injected intraperitoneally (IP) 3 times per day ([…]). Control mice were injected at the same times with a similar volume of vehicle control (PBS). Survival was followed for at least 72 hours.
# Ten mice were treated each with PB S alone or CT 1501R alone on the same schedule as the experimental mice. […] Endotoxin survival data were summarized from a total of six (6) independent experiments. Summary Table 1 details the results of each of the six experiments. In FIG. 5, each time point represents a minimum of three (3) experiments comprising at least twenty (20) mice per group. A probability analysis of the survival data using a Fisher's Exact One Tailed Test is given as Table 3. Significant protection was conferred if CT1501R was administered immediately after the LPS treatment. The cumulative percent survival at 72 hours post LPS treatment was 60% compared to 7% for the LPS-only treated animals (p=<0.0005; Table 3).
# thymocytes = assay: thymocyte costimulator assay (ConA and IL-1α or IL-2); format: cell-based, mice; conditions: drug added two hours prior to activation
# Method: CT1501R was added to the cells at the doses indicated two hours prior to activation with ConA and IL-1α or IL-2. Background counts were less than 200 cpm.
# A thymocyte costimulator assay is conducted to evaluate the inventive compounds to inhibit activation and proliferation of thymocytes caused by stimulation with Con A and interleukin-1 (IL-1), or […]. Thymuses are obtained from mice (e.g., female Balb/C mice) and the thymuses are removed and dissociated into culture media (e.g., RPMI 1640 without serum supplementation). The dissociated thymus tissue and cell suspension is transferred to centrifuge tubes and allowed to settle, washed with HBSS and resuspended in serum-supplemented culture media (e.g., RPMI 1640 with 10% fetal calf serum). Any contaminating red cells are lysed, and viable cells are resuspended and counted. Thymocytes are plated (e.g., 96-well plates at a density of 2×10^5 cells/well) and a stimulating agent, such as Con A, IL-1 (e.g., IL-1α) or IL-2 is added to the well. The cells are incubated for 4 days at 37 ° C. On the fourth day, the ceils are pulsed with tritiated thymidine and cell proliferation determined. Inventive compounds are added at the time of stimulating agent addition.
smiles,measurement,setting,value
"C[C@@H](O)CCCCn1c(=O)c2c(ncn2C)n(C)c1=O [CT1501R, (R)-1-(5-hydroxyhexyl)-3,7-dimethylxanthine]",cumulative percent survival,[1]; CT1501R four hours after LPS,37%
same,cumulative percent survival,[1]; CT1501R immediately after LPS,60%
same,cumulative percent survival,[1]; CT1501R two hours after LPS,55%
same,survival compared with published results for Genentech's bifunctional TNF receptor,[1]; drug given approximately simultaneously with or two hours following lethal LPS,consistently was better at improving survival than Genentech's TNF receptor
same,survival (Number Surviving/Total),"[1]; first CT-1501R dose t = 0 Hr post LPS, 24 Hr post LPS",4/5 and 5/5 and 9/10
same,survival (Number Surviving/Total),"[1]; first CT-1501R dose t = 0 Hr post LPS, 48 Hr post LPS",4/5 and 5/5 and 7/10
same,survival (Number Surviving/Total),"[1]; first CT-1501R dose t = 0 Hr post LPS, 72 Hr post LPS",4/5 and 5/5 and 3/10
same,survival (Number Surviving/Total),"[1]; first CT-1501R dose t = 2 Hr post LPS, 24 Hr post LPS",4/5 and 5/5 and 5/10
same,survival (Number Surviving/Total),"[1]; first CT-1501R dose t = 2 Hr post LPS, 48 Hr post LPS",3/5 and 5/5 and 3/10
same,survival (Number Surviving/Total),"[1]; first CT-1501R dose t = 2 Hr post LPS, 72 Hr post LPS",3/5 and 5/5 and 3/10
same,survival (Number Surviving/Total),"[1]; first CT-1501R dose t = 4 Hr post LPS, 24 Hr post LPS",5/5 and 7/10 and 3/10
same,survival (Number Surviving/Total),"[1]; first CT-1501R dose t = 4 Hr post LPS, 48 Hr post LPS",3/5 and 5/10 and 4/10 and 3/10
same,survival (Number Surviving/Total),"[1]; first CT-1501R dose t = 4 Hr post LPS, 72 Hr post LPS",3/5 and 5/10 and 2/10 and 3/10
same,"adverse effects, drug alone without endotoxin","[1]; ten mice, same schedule as the experimental mice",no adverse effects noted
same,inhibition of thymocyte proliferation,thymocytes,inhibited thymocyte proliferation in a dose-response manner

# Source: patent US5621102A, “Process for preparing enantiomerically pure xanthine derivatives” (Cell Therapeutics, Inc., priority 1995, dated 1997)
